From EP0146219A1, “Aminophosphonic & aminophosphinic acid derivatives processes for their preparation & herbicidal compositions containing them” (priority 1983, dated 1985)
Where a name gives a salt, the structure may show the parent alone.

Key:
[1] = test system: Polygonum equiseliforme; assay: post-emergence herbicidal activity (spray, greenhouse); type: in vivo; conditions: after 2 weeks; spray to 21 day old plants; active ingredient mole/l: I 0.022, II 0.043, III 0.03, IV 0.043, V 0.043; also: key: 0: No injury; 1: Slight injury; 2: Moderate injury; 3: Severe injury; 4: Killed
Text: (§1) The spray, a water solution containing active ingredient and a surfactant is applied to the plants in different sets of pans at several rates (kilogram per dunam) of active ingredient. The treated plants are placed in a greenhouse and the effects are observed and recorded after 4 days (table II) and after 2 weeks (table III). The post-emergence herbicidal activity index used in Table II and III is as follows: […]

[2] = test system: Inula Viscosa; assay: as above; type: in vivo; conditions: after 2 weeks; spray to 21 day old plants; active ingredient mole/l: I 0.022, II 0.043, III 0.03, IV 0.043, V 0.043; also: key: 0: No injury; 1: Slight injury; 2: Moderate injury; 3: Severe injury; 4: Killed
Text: as §1

[3] = test system: Rubus Sanguineus; assay: as above; type: in vivo; conditions: after 2 weeks; spray to 21 day old plants; active ingredient mole/l: I 0.022, II 0.043, III 0.03, IV 0.043, V 0.043; also: key: 0: No injury; 1: Slight injury; 2: Moderate injury; 3: Severe injury; 4: Killed
Text: as §1

[4] = test system: Cynodon daotylon; assay: as above; type: in vivo; conditions: after 2 weeks; spray to 21 day old plants; active ingredient mole/l: I 0.022, II 0.043, III 0.03, IV 0.043, V 0.043; also: key: 0: No injury; 1: Slight injury; 2: Moderate injury; 3: Severe injury; 4: Killed
Text: as §1

[5] = test system: Agropyron repens (quackgrass); assay: as above; type: in vivo; conditions: after 2 weeks; spray to 21 day old plants; active ingredient mole/l: I 0.022, II 0.043, III 0.03, IV 0.043, V 0.043
Text: as §1

[6] = test system: Avena sterilis; assay: as above; type: in vivo; conditions: after 2 weeks; spray to 21 day old plants; active ingredient mole/l: I 0.022, II 0.043, III 0.03, IV 0.043, V 0.043
Text: as §1

[7] = test system: Convolvulus arvensis; assay: as above; type: in vivo; conditions: after 2 weeks; spray to 21 day old plants; active ingredient mole/l: I 0.022, II 0.043, III 0.03, IV 0.043, V 0.043
Text: as §1

[8] = test system: Phragmites australis; assay: as above; type: in vivo; conditions: after 2 weeks; spray to 21 day old plants; active ingredient mole/l: I 0.022, II 0.043, III 0.03, IV 0.043, V 0.043
Text: as §1

[9] = test system: Pennisetum clandestinum; assay: as above; type: in vivo; conditions: after 2 weeks; spray to 21 day old plants; active ingredient mole/l: I 0.022, II 0.043, III 0.03, IV 0.043, V 0.043
Text: as §1

[10] = test system: Cyperus Rotundus; type: in vivo; conditions: after 2 weeks; spray to 21 day old plants; active ingredient mole/l: I 0.022, II 0.043, III 0.03, IV 0.043, V 0.043
Text: The spray, a water solution containing active ingredient and a surfactant is applied to the plants in different sets of pans at several rates (kilogram per dunam) of active ingredient. […] The post-emergence herbicidal activity index used in Table II and III is as follows: […]

[11] = test system: sinapis arvensis; assay: soil-applied (pre-emergence) test in planted trays, visual percent inhibition; type: in vivo; conditions: Mutarda arvensis, 336 h, read-out: % inhibition. C; for inhibition at 1000 g/ha: rate 1.0 KG/HECTARE
Method: (§2) Plastic trays were planted with green cynondon dactylon, convolvulus arvensis and sinapis arvensis and covered with a good grade of top soil. All materials were applied with a laboratory sprayer that delivered a volume of 187 1/hectare. The trays of soil were thereafter watered lightly to activate the aminotriazole salts. The experiment was conducted twice and each was arranged in a completely random design with three replications. Visual estimates of percent inhibition were made at two weeks after treatment.

[12] = test system: cynodon dactylon; assay: as above; type: in vivo; conditions: 336 h; for inhibition at 1000 g/ha: rate 1.0 KG/HECTARE
Method: as §2

[13] = test system: Convolvulus arvensis; assay: as above; type: in vivo; conditions: 336 h, read-out: % inhibition. B; for inhibition at 1000 g/ha: rate 1.0 KG/HECTARE
Method: as §2

[14] = solubility and crystallization of the salts in water; type: physicochemical; conditions: for solubility: at room temperature
[15] = herbicidal activity when applied to the soil (statement in the text); type: in vivo; conditions: soil application
[16] = test system: various plant species; assay: post-emergence herbicidal activity, overall comparison; type: in vivo; conditions: for herbicidal activity compared with the related amine (IPA) salt: post-emergence, Tables II and III
Text: as §1

[17] = rate 1.5 KG/HECTARE, two weeks after treatment
[18] = rate 0.5 KG/HECTARE, two weeks after treatment

SMILES	post-emergence herbicidal activity index, TABLE III, A [1]	post-emergence herbicidal activity index, TABLE III, C [2]	post-emergence herbicidal activity index, TABLE III, B [3]	post-emergence herbicidal activity index, TABLE III, F [4]	post-emergence herbicidal activity index, TABLE III, J [5]	post-emergence herbicidal activity index, TABLE III, H [6]	post-emergence herbicidal activity index, TABLE III, G [7]	post-emergence herbicidal activity index, TABLE III, D [8]	post-emergence herbicidal activity index, TABLE III, E [9]	post-emergence herbicidal activity index, TABLE III, I [10]	inhibition at 1000 g/ha ([11]; two weeks after treatment)	inhibition at 1000 g/ha ([12]; two weeks after treatment)	inhibition at 1000 g/ha ([13]; two weeks after treatment)	herbicidal activity compared with the related amine (IPA) salt [16]	further results
CP(=O)(O)CCC(N)C(=O)O (stereo not drawn) [III, Di(3-amino-1,2,4-triazole)Phosphino-thricine salt.]	3	3	3	3	3	3	3	2	3	3	30%	10%	30%	–	inhibition at 1500 g/ha [11, 17]: 60%; inhibition at 1500 g/ha [12, 17]: 20%; inhibition at 1500 g/ha [13, 17]: 50%
O=C(O)CNCP(=O)(O)O [IV, Mono(Isopropylamine)NPMG salt (ROUNDUP^(R)), reference compound]	–	–	–	–	–	–	–	–	–	–	–	–	–	–	crystalization ([14]; at lower temperature (0-S^oc)): crystalization of the salt may occur; solubility ([14]; listed as NPMG.IPA): 480 g/1; herbicidal activity when applied to the soil [15]: little herbicidal activity
O=C(O)CN(CC(=O)O)CP(=O)(O)O [II, Di(3-amino-1,2,4-triazole)NPMIDA salt]	3	3	2	2	2	3	2	3	3	3	–	–	–	far more superior activity	inhibition at 700 g/ha [11]: 65%; inhibition at 1200 g/ha [11]: 80%; inhibition at 700 g/ha ([12]; read-out: % inhibition. A): 40%; inhibition at 1200 g/ha ([12]; read-out: % inhibition. A): 70%; inhibition at 700 g/ha [13]: 55%; inhibition at 1200 g/ha [13]: 70%
O=C(O)CN(CC(=O)O)CP(=O)(O)O [V, Mono(Isopropylamine)NPMIDA salt, reference compound]	1	2	1	0	1	1	0	1	1	1	–	–	–	–	–
O=C(O)CNCP(=O)(O)O [I, Di(3-amino-1,2,4-triazole)NPMG salt]	–	–	–	–	–	–	–	–	–	–	90%	80%	90%	at least the same result	crystalization ([14]; at 0^oc): no crystalization; solubility ([14]; listed as NPMG-Diaminotriazole salt): at least 1000 g/1; inhibition at 500 g/ha [11, 18]: 60%; inhibition at 500 g/ha [12, 18]: 45%; inhibition at 500 g/ha [13, 18]: 80%; antagonistic interaction ([16]; applied to many species of weed, especially quackgrass): no antagonistic interaction; speed of phytotoxic action (knock down effect) ([16]; first 4 days after application, compared with amine salt IV): faster phytotoxic action
